Read-outs that look alike come from different tables or passages of the source.
Tested on: cancer cells
Assay: MTS assay: inhibition of cell growth (formazan absorbance at 492 nm after 72 hours with test compound)
Type: cell-based
Conditions: inhibition class
Outline: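 DMEM with 1% FBS; cells seeded at 3000/well and grown 18 h at 37 °C, then exposed to compound for 72 h and to MTS/PMS for 4 h. IC50 is the concentration giving a 50% absorbance drop; grades are % inhibition bands.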

[1] = Homo sapiens, DLD-1 cells, read-out: DLD-1, MTS 72 hours at 10 uM
[2] = Homo sapiens, KATO III cells, read-out: KATO III, MTS 72 hours at 10 uM
[3] = Homo sapiens, MDA-MB-231 cells, read-out: MDA-MB-231, MTS 72 hours at 10 uM
[4] = Homo sapiens, NCI-H1299 cells, read-out: NCI-H1299, MTS 72 hours at 10 uM
[5] = Homo sapiens, PC-3 cells, read-out: PC-3, MTS 72 hours at 10 uM
[6] = PACA-2 cells, read-out: PACA-2, MTS 72 hours at 10 uM

| Structure (SMILES) | inhibition at 10 µM [1] [%] | inhibition at 10 µM [2] [%] | inhibition at 10 µM [3] [%] | inhibition at 10 µM [4] [%] | inhibition at 10 µM [5] [%] | inhibition at 10 µM [6] [%] |
| --- | --- | --- | --- | --- | --- | --- |
| COc1ccc(CN2CCc3n[nH]c4nc(NCCc5ccc(F)cc5)nc2c34)cc1 [Compound 109, N-[2-(4-fluorophenyl)ethyl]-6-(4-methoxybenzyl)-2,6,7,8-tetrahydro-1,2,3,5,6-pentaazaacenaphthylen-4-amine] | 50 to 79 | 50 to 79 | < 50 | 50 to 79 | < 50 | 50 to 79 |
| COc1ccc(CN2CCc3n[nH]c4nc(N5CCN(Cc6ccccc6)CC5)nc2c34)cc1 [Compound 114, 4-(4-benzylpiperazin-1-yl)-6-(4-methoxybenzyl)-2,6,7,8-tetrahydro-1,2,3,5,6-pentaazaacenaphthylene] | < 50 | < 50 | < 50 | < 50 | < 50 | < 50 |
| CCOC(=O)N1CCN(c2nc3c4c(n[nH]c4n2)CCN3Cc2ccccc2)CC1 [Compound 89, ethyl 4-(6-benzyl-2,6,7,8-tetrahydro-1,2,3,5,6-pentaazaacenaphthylen-4-yl)piperazine-1-carboxylate] | < 50 | < 50 | > 79 | < 50 | > 79 | < 50 |
| COc1ccc(CN2CCc3n[nH]c4nc(Nc5ccccc5)nc2c34)cc1 [Compound 118, 6-(4-methoxybenzyl)-N-phenyl-2,6,7,8-tetrahydro-1,2,3,5,6-pentaazaacenaphthylen-4-amine] | < 50 | < 50 | < 50 | < 50 | < 50 | < 50 |
| O=C(NCCOc1ccccc1)C1CN(Cc2ccccc2)c2nc(NCc3ccccc3)nc3[nH]nc1c23 (stereo not drawn) [Compound 241, 6-benzyl-4-(benzylmino)-N-(2-phenoxyethyl)-2,6,7,8-tetrahydro-1,2,3,5,6-pentaazaacenaphthylene-8-carboxamide] | < 50 | < 50 | < 50 | < 50 | < 50 | < 50 |
| COc1ccc(CN2CCCc3n[nH]c4nc(NCc5cccnc5)nc2c34)cc1 [Compound 251, 6-(4-methoxybenzyl)-N-(pyridin-3-ylmethyl)-6,7,8,9-tetrahydro-2H-1,2,3,5,6-pentaazabenzo[cd]azulen-4-amine] | > 79 | > 79 | > 79 | > 79 | > 79 | > 79 |
| CCC(C)Nc1nc2c3c(n[nH]c3n1)CCN2Cc1ccccc1 (stereo not drawn) [Compound 52, 6-benzyl-N-sec-butyl-2,6,7,8-tetrahydro-1,2,3,5,6-pentaazaacenaphthylen-4-amine] | > 79 | > 79 | > 79 | 50 to 79 | < 50 | 50 to 79 |
| CN(CCc1ccccc1)c1nc2c3c(n[nH]c3n1)CCN2Cc1ccccc1 [Compound 81, 6-benzyl-N-methyl-N-(2-phenylethyl)-2,6,7,8-tetrahydro-1,2,3,5,6-pentaazaacenaphthylen-4-amine] | < 50 | < 50 | < 50 | < 50 | < 50 | < 50 |
| c1ccc(CN2CCc3n[nH]c4nc(NCc5ccc6c(c5)OCO6)nc2c34)cc1 [Compound 31, N-(1,3-benzodioxol-5-ylmethyl)-6-benzyl-2,6,7,8-tetrahydro-1,2,3,5,6-pentaazaacenaphthylen-4-amine] | < 50 | < 50 | < 50 | < 50 | < 50 | < 50 |
| CC(O)CNc1nc2c3c(n[nH]c3n1)CCN2Cc1ccccc1 (stereo not drawn) [Compound 69, 1-[(6-benzyl-2,6,7,8-tetrahydro-1,2,3,5,6-pentaazaacenaphthylen-4-yl)amino]propan-2-ol] | < 50 | < 50 | < 50 | < 50 | < 50 | < 50 |
| CSc1nc2c3c(nn(Cc4ccccc4)c3n1)CCN2Cc1ccccc1 [Compound 133, 2,6-dibenzyl-4-(methylsulfanyl)-2,6,7,8-tetrahydro-1,2,3,5,6-pentaazaacenaphthylene] | > 79 | > 79 | > 79 | > 79 | > 79 | > 79 |
| COc1ccc(CN2CCc3n[nH]c4nc(NCCOc5ccccc5)nc2c34)cc1 [Compound 108, 6-(4-methoxybenzyl)-N-(2-phenoxyethyl)-2,6,7,8-tetrahydro-1,2,3,5,6-pentaazaacenaphthylen-4-amine] | 50 to 79 | < 50 | < 50 | < 50 | < 50 | > 79 |
| Fc1ccccc1CCNc1nc2c3c(n[nH]c3n1)CCN2Cc1ccccc1 [Compound 22, 6-benzyl-N-[2-(2-fluorophenyl)ethyl]-2,6,7,8-tetrahydro-1,2,3,5,6-pentaazaacenaphthylen-4-amine] | < 50 | < 50 | < 50 | < 50 | < 50 | < 50 |
| COc1ccc(CN2CCc3n[nH]c4nc(NCc5ccccc5Cl)nc2c34)cc1 [Compound 112, N-(2-chlorobenzyl)-6-(4-methoxybenzyl)-2,6,7,8-tetrahydro-1,2,3,5,6-pentaazaacenaphthylen-4-amine] | > 79 | > 79 | > 79 | < 50 | > 79 | > 79 |
| C1CCC(Nc2nc3c4c(n[nH]c4n2)CCN3)CC1 [Compound 123, N-cyclohexyl-2,6,7,8-tetrahydro-1,2,3,5,6-pentaazaacenaphthylen-4-amine] | < 50 | < 50 | < 50 | < 50 | < 50 | < 50 |
| COc1ccc(CN2CCc3n[nH]c4nc(NC5CCCCC5)nc2c34)cc1 [Compound 107, N-cyclohexyl-6-(4-methoxybenzyl)-2,6,7,8-tetrahydro-1,2,3,5,6-pentaazaacenaphthylen-4-amine] | < 50 | < 50 | < 50 | < 50 | < 50 | < 50 |
| COc1ccc(CN2CCCc3n[nH]c4nc(N5CCCCC5)nc2c34)cc1 [Compound 245, 6-(4-methoxybenzyl)-4-piperidin-1-yl-6,7,8,9-tetrahydro-2H-1,2,3,5,6-pentaazabenzo[cd]azulene] | < 50 | < 50 | < 50 | < 50 | < 50 | < 50 |
| c1ccc(CN2CCc3n[nH]c4nc(N5CCN(Cc6cccnc6)CC5)nc2c34)cc1 [Compound 88, 6-benzyl-4-[4-(pyridin-3-ylmethyl)piperazin-1-yl]-2,6,7,8-tetrahydro-1,2,3,5,6-pentaazaacenaphthylene] | < 50 | > 79 | > 79 | < 50 | > 79 | < 50 |
| CN(C)CCCNc1nc2c3c(n[nH]c3n1)CCN2Cc1ccccc1 [Compound 91, N′-(6-benzyl-2,6,7,8-tetrahydro-1,2,3,5,6-pentaazaacenaphthylen-4-yl)-N,N-dimethylpropane-1,3-diamine] | 50 to 79 | > 79 | > 79 | < 50 | > 79 | < 50 |
| Clc1ccc(CCNc2nc3c4c(n[nH]c4n2)CCN3Cc2ccccc2)cc1 [Compound 61, 6-benzyl-N-[2-(4-chlorophenyl)ethyl]-2,6,7,8-tetrahydro-1,2,3,5,6-pentaazaacenaphthylen-4-amine] | 50 to 79 | < 50 | < 50 | 50 to 79 | < 50 | < 50 |
| Brc1cccc(CCNc2nc3c4c(n[nH]c4n2)CCN3Cc2ccccc2)c1 [Compound 28, 6-benzyl-N-[2-(3-bromophenyl)ethyl]-2,6,7,8-tetrahydro-1,2,3,5,6-pentaazaacenaphthylen-4-amine] | < 50 | > 79 | > 79 | > 79 | > 79 | < 50 |
| c1ccc(CNc2nc3c4c(n[nH]c4n2)CCN3)cc1 [Compound 101, N-benzyl-2,6,7,8-tetrahydro-1,2,3,5,6-pentaazaacenaphthylen-4-amine] | 50 to 79 | < 50 | < 50 | < 50 | 50 to 79 | > 79 |
| c1ccc(CN2CCc3n[nH]c4nc(NCC5COc6ccccc6O5)nc2c34)cc1 (stereo not drawn) [Compound 59, 6-benzyl-N-(2,3-dihydro-1,4-benzodioxin-2-ylmethyl)-2,6,7,8-tetrahydro-1,2,3,5,6-pentaazaacenaphthylen-4-amine] | < 50 | < 50 | < 50 | < 50 | < 50 | < 50 |
